According to ChEMBL document CHEMBL3784947, “Pharmacophore elucidation of phosphoiodyn A - Potent and selective peroxisome proliferator-activated receptor β/δ agonists with neuroprotective activity” (Bioorg Med Chem Lett, 2016):
The source made the active and inactive calls. No cut-off for these calls is given here.

What was measured:
[1] = molecular target: T1, Peroxisome proliferator-activated receptor alpha (Homo sapiens) (UniProt Q07869); assay: Agonist activity at PPAR alpha (unknown origin) transfected in HEK293 cells at 1 uM after 24 hrs by dual-luciferase reporter gene assay; assay type: cell-based
T1 sequence (whole entry): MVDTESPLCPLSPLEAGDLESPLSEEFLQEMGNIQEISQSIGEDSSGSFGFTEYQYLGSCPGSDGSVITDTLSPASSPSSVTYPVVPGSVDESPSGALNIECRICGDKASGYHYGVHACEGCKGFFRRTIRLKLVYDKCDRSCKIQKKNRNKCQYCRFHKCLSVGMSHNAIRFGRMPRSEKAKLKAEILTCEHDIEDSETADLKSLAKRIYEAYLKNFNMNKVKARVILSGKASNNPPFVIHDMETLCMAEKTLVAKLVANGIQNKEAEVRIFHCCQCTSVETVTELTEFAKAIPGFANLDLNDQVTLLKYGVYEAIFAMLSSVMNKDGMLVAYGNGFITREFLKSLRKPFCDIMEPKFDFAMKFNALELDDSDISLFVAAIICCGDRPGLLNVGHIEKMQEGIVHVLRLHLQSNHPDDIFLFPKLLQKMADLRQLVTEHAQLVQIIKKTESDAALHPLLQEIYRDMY

[2] = molecular target: T2, Peroxisome proliferator-activated receptor delta (Homo sapiens) (UniProt Q03181); assay: Agonist activity at PPAR delta (unknown origin) transfected in HEK293 cells at 1 uM after 24 hrs by dual-luciferase reporter gene assay; assay type: cell-based
T2 sequence (whole entry): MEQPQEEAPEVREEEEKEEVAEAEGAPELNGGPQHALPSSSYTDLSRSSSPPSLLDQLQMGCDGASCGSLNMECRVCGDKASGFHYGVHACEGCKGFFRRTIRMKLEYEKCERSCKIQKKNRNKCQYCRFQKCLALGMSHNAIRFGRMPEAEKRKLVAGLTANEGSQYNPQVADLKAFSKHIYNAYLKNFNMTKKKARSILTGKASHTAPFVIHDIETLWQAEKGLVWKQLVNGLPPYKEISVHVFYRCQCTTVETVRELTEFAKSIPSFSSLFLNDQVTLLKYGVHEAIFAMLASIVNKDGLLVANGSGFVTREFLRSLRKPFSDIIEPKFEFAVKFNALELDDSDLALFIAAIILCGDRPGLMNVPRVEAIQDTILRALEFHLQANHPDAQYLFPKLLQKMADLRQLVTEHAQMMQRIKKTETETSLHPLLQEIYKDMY

[3] = molecular target: T3, Peroxisome proliferator-activated receptor gamma (Homo sapiens) (UniProt P37231); assay: Agonist activity at PPAR gamma (unknown origin) transfected in HEK293 cells at 1 uM after 24 hrs by dual-luciferase reporter gene assay; assay type: cell-based
T3 sequence (whole entry): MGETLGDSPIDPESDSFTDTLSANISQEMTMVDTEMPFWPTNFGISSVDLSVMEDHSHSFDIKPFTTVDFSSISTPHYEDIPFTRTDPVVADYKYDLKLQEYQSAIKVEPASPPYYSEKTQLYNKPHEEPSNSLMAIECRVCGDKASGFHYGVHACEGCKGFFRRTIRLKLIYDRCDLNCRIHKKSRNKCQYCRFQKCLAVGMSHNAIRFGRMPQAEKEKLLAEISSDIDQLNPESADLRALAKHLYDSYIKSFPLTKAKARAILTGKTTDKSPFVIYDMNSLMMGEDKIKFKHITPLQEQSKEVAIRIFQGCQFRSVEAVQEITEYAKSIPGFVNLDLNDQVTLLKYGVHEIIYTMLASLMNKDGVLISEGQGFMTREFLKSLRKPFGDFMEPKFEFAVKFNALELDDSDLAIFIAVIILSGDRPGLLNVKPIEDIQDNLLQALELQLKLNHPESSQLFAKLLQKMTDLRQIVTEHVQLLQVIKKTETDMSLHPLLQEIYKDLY

[4] = molecular target: T4, Peroxisome proliferator-activated receptor delta (Homo sapiens, UniProt Q03181); assay: Agonist activity at PPAR delta (unknown origin) transfected in HEK293 cells after 24 hrs by dual-luciferase reporter gene assay; assay type: cell-based
T4 sequence (Q03181 whole entry): T2 sequence (whole entry)

[5] = molecular target: T3, Peroxisome proliferator-activated receptor gamma (Homo sapiens); assay: Agonist activity at PPAR gamma (unknown origin) transfected in HEK293 cells at 0.1 to 100 uM after 24 hrs by DR-1 luciferase reporter gene assay; assay type: cell-based
PC-12 [6] = assay: Neuroprotective activity against etoposide-induced apoptosis in rat PC12 cells assessed as cell viability at 1 uM preincubated for 4 hrs followed by etoposide addition measured after 48 hrs by prestoblue staining based fluorescence assay; assay type: functional
PC-12 [7] = assay: Neuroprotective activity against etoposide-induced apoptosis in rat PC12 cells assessed as cell viability at 3 uM preincubated for 4 hrs followed by etoposide addition measured after 48 hrs by prestoblue staining based fluorescence assay (reference value: 52 %); assay type: functional; settings: read-out: Activity
PC-12 [8] = assay: Neuroprotective activity against serum starvation-induced apoptosis in rat PC12 cells assessed as cell survival at 1 to 30 uM after 24 hrs by prestoblue staining based fluorescence assay (reference value: 55%); assay type: functional
[9] = molecular target: T2, Peroxisome proliferator-activated receptor delta (Homo sapiens); assay: Agonist activity at PPAR delta (unknown origin) transfected in HEK293 cells at 0.001 to 1000 uM after 24 hrs by pGL3-Luciferase reporter gene assay; assay type: cell-based
[10] = molecular target: T2, Peroxisome proliferator-activated receptor delta (Homo sapiens); assay: Agonist activity at PPAR delta (unknown origin) transfected in HEK293 cells at 0.001 to 1000 uM after 24 hrs by DR-4 luciferase reporter gene assay; assay type: cell-based
[11] = molecular target: T4, Peroxisome proliferator-activated receptor delta; assay: Agonist activity at PPAR delta (unknown origin)
Homo sapiens = organism: Homo sapiens; assay: Ratio of EC50 for human PPAR alpha to EC50 for human PPAR delta
[12] = molecular target: PPAR delta/gamma (Homo sapiens) (UniProt P37231+Q03181); assay: Ratio of EC50 for human PPAR gamma to EC50 for human PPAR delta
[13] = molecular target: T4, Peroxisome proliferator-activated receptor delta; assay: Agonist activity at human PPAR delta by cell based cotransfection assay

Structure (SMILES)	Activity [1]	Activity [2]	Activity [3]	EC50 [4] [nM]	Activity [5]	viability at 3 µM (PC-12 [7]) [%]	Survival (PC-12 [8]) [%]	also measured
CCOP(=O)(CCO)OCC	inactive	Active	inactive	112	inactive	116	78	Activity (PC-12 [6]): Active; Activity [9]: inactive; Activity [10]: inactive
Cc1cccc(Nc2cc(Cl)nc(SCC(=O)O)n2)c1C	Active	–	–	–	–	–	–	–
O=P(O)(O)CCO	inactive	–	inactive	> 100000	inactive	–	–	–
CN(CCOc1ccc(CC2SC(=O)NC2=O)cc1)c1ccccn1 (stereo not given)	–	–	Active	–	–	–	–	–
C[C@@H]1CN(c2ccc(OC(F)(F)F)cc2)C[C@H](C)N1S(=O)(=O)c1cccc2c1C[C@@H](C(=O)O)C2	–	–	–	–	–	–	–	EC50 [11]: 1.5 nM
CCOC(=O)Nc1ccc(NCc2ccc(F)cc2)nc1N [FLUPIRTINE]	–	–	–	–	–	80	82	–
O=P(O)(CCO)OCCC#CC#CCCCCCC/C=C/I	–	–	–	24	–	–	–	Ratio EC50 (Homo sapiens): > 200; Ratio EC50 [12]: > 200; EC50 [13]: 23.7 nM
O=P(O)(OCO)OCCC#CC#CCCCCCC/C=C/I	–	–	–	> 10000	–	–	–	EC50 [13]: > 10 nM
CCOP(=O)(O)CCO	inactive	Active	inactive	78	inactive	110	77	Activity (PC-12 [6]): Active; Activity [9]: inactive; Activity [10]: inactive
CCOC(=O)CCO	Active	Active	Active	> 1000	Active	–	–	–
